From paper PMC5884524, “A high content, high throughput cellular thermal stability assay for measuring drug-target engagement in living cells” (PLoS ONE, 2018)
“And” between values parts separate entries of the source, which are not always exact repeats. Equal values may be shown once. Read-outs that look alike come from different tables or passages of the source. One block for each compound: values may come before it. Peptide text beside a SMILES is read from it. * marks the point of attachment. Cbz = O=C(OCc1ccccc1)*

What was measured:
Chk1 [1] = target: T1, Chk1 (Homo sapiens, UniProt O14757); assay: HCIF-CETSA (CETSA by immunofluorescence), low well volume heating, HT29 cells; type: cell-based; design: Thermal response profile of Chk1 in HT29 cells detected by immunofluorescent imaging with the EP691Y antibody; endogenous in cells; host or cells: HT29; details: for EC50: 25 μL media
T1 sequence (O14757 1-476): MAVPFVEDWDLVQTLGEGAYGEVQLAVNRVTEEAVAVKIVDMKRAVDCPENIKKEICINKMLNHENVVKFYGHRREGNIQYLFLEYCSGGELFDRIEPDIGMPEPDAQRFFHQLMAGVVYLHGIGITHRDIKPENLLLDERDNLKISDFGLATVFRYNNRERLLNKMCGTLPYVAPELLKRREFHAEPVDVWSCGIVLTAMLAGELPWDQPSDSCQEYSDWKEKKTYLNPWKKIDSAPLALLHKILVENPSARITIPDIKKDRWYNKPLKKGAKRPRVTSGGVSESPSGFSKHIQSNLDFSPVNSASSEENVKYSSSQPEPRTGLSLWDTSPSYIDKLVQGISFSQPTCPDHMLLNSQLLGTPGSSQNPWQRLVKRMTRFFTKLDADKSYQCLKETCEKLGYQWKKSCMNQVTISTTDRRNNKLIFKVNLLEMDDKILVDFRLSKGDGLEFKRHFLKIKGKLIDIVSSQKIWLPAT
Procedure: Compounds were serially diluted in DMSO to 200-times the final assay concentration then diluted 1:200 in media (without FCS). The cell media was removed and replaced with 25 μL of compound in media and incubated at 37°C, 5% CO2 for 10 minutes. The plate was sealed with an aluminum plate seal and heated by floating in a pre-heated water bath (Grant Instruments W14) for 3 minutes. 75 μL of room temperature media (without FCS or compound) was added and the plate incubated at room temperature for 5 minutes. […] Plates were imaged on an Operetta high content imager using a 20x objective and analyzed using Harmony software.

Chk1 [2] = target: T1, Chk1; assay: Chk1 autophosphorylation (pS296) by immunoblotting and densitometry, HT29 cells; type: cell-based; design: Thermal response profile of Chk1 in HT29 cells detected by immunofluorescent imaging with the EP691Y antibody; endogenous in cells; host or cells: HT29; details: for IC50: HT29, 10 min
Procedure: (§1) Immunoblotting was conducted as previously described.

HT29 cells = assay: S-phase arrest by Hoechst 33342 imaging, HT29 cells; type: cell-based, human; details: HT29, 2.5 mM for 18 hours, n = 6 wells ± SD
Procedure: (§2) Single cell immunofluorescent imaging was conducted as previously described in CellCarrier 96WP or CellCarrier Ultra 96WP (6005550 or 6055300, Perkin Elmer) and imaged on an Operetta high content imager (Perkin Elmer) using a 10, 20 or 40x objective then analyzed using Harmony software (Perkin Elmer).

Chk1 [3] = target: T1, Chk1; assay: Nuclear pChk1 (S317, S345) by single cell immunofluorescence, HT29 cells; type: cell-based; design: Thermal response profile of Chk1 in HT29 cells detected by immunofluorescent imaging with the EP691Y antibody; endogenous in cells; host or cells: HT29; details: HT29, 2.5 mM for 18 hours
Procedure: as §2

Chk1 [4] = target: T1, Chk1; assay: HCIF-CETSA (CETSA by immunofluorescence), low well volume heating, U2OS cells; type: cell-based; details: 10 min
Procedure: 10 000 cells were plated per well of a CellCarrier Ultra 96WP (6055300, Perkin Elmer) and allowed to adhere overnight. Compounds were serially diluted in DMSO to 200-times the final assay concentration then diluted 1:200 in media (without FCS). The cell media was removed and replaced with 25 μL of compound in media and incubated at 37°C, 5% CO2 for 10 minutes. The plate was sealed with an aluminum plate seal and heated by floating in a pre-heated water bath (Grant Instruments W14) for 3 minutes. 75 μL of room temperature media (without FCS or compound) was added and the plate incubated at room temperature for 5 minutes. Cells were fixed by the addition of 100 μL paraformaldehyde (7.4% in PBS) at room temperature for 15 minutes. Cells were washed 3 times with PBS and Chk1 detected with anti-Chk1 rabbit EP691Y monoclonal antibody (Ab40866, Abcam) and an AlexaFluor488 anti-rabbit secondary antibody (A-11034, Thermo Fisher Scientific). Plates were imaged on an Operetta high content imager using a 20x objective and analyzed using Harmony software.

Chk1 [5] = target: T1, Chk1; assay: Chk1 autophosphorylation (pS296) by immunoblotting and densitometry, U2OS cells; type: cell-based; details: 10 min, identical cellular conditions to HCIF-CETSA (Fig 6E)
Procedure: as §1

Chk1 [6] = target: T1, Chk1; design: endogenous in cells; details: U2OS cells; read-out: CETSA classic EC50; cited from earlier work
Chk1 [7] = target: T1, Chk1; assay: Chk1 thermal stability by immunofluorescence, PBS immersion heating, HT29 cells; type: cell-based; design: Thermal response profile of Chk1 in HT29 cells detected by immunofluorescent imaging with the EP691Y antibody; endogenous in cells; host or cells: HT29; details: HT29, 1–10 μM for 30 minutes, heated to 46, 49, 52 or 55°C
From the text: (§3) Plates were heated as follows: (i) sealed with adhesive aluminum PCR plate foil and then floated or submerged in a water bath (Grant Instruments W14) containing water pre-heated to the desired temperature or (ii) 1 L of DPBS containing magnesium and calcium (D1283, Sigma) was placed in a clean water bath (SUB6, Grant Instruments) and heated to the required temperature. The media was removed from the wells of the CellCarrier plate and the plate submersed in the DPBS so that all wells were full of DPBS and the plate was not touching the bottom of the water bath. The plate was incubated in the DPBS for 3 minutes, removed, the hot DPBS removed and replaced with 100 μL room temperature DPBS and then incubated at room temperature for 5 minutes. In some experiments, the DPBS was substituted for live cell imaging solution (LCIS, 20 mM Hepes, 140 mM NaCl, 2.5 mM KCl, 1.8 mM CaCl2, 1.0 mM MgCl2, pH 7.4).
as §2

Chk1 [8] = target: T1, Chk1; assay: Chk1 thermal stability by immunofluorescence, sealed plate submerged in water bath, HT29 cells; type: cell-based; design: Thermal response profile of Chk1 in HT29 cells detected by immunofluorescent imaging with the EP691Y antibody; endogenous in cells; host or cells: HT29; details: HT29, 10 μM for 30 minutes, HU treated or untreated, sealed plate 55°C
From the text: as §3, §2

Chk1 [9] = target: T1, Chk1; assay: HCIF-CETSA (CETSA by immunofluorescence), low well volume heating, HT29 cells; type: cell-based; design: Thermal response profile of Chk1 in HT29 cells detected by immunofluorescent imaging with the EP691Y antibody; endogenous in cells; host or cells: HT29; details: HT29, 10 minute incubation, 50 μL media, 51°C (Fig 6D)
Chk1 [10] = target: T1, Chk1; design: Thermal response profile of Chk1 in HT29 cells detected by immunofluorescent imaging with the EP691Y antibody; endogenous in cells; host or cells: HT29; details: HT29 cells; read-out: CETSA classic EC50; cited from earlier work
[11] = HT29, 0–40 μM inhibitor, 10 min, 49°C (Fig 8A), read-out: EC50, decrease in nuclear Chk1 fluorescence following heating

EC50 (Chk1 [1]; [11]): 1300 ± 300 nM
IC50 (Chk1 [2]; same dilution series and conditions as HCIF-CETSA (Fig 8B), read-out: IC50, S296 phosphorylation): 500 nM
SMILES: N#Cc1cc2c(cn1)[nH]c1ncc(-c3ccc(CN4CCCCC4)cc3)cc12 [GNE-900, reference compound]

Increase in nuclear Chk1 pS317 (Chk1 [3]): 1.9 fold
Increase in nuclear Chk1 pS345 (Chk1 [3]): 1.6 fold
SMILES: NC(=O)NO [HU, Hydroxyurea]
Cells exhibiting evidence of S-phase arrest (HT29 cells): 71.4 ± 0.7%

SMILES: CC(C)C[C@@H](C=O)NC(=O)[C@H](CC(C)C)NC(=O)[C@H](CC(C)C)NC(=O)OCc1ccccc1 [MG-132, reference compound] (Cbz-Leu-Leu-Leu-aldehyde)
Effect on temperature induced decrease in Chk1 nuclear fluorescence (Chk1 [1]; HT29, 5 μM for 2 hours, then DMSO or 3 μM V158411, 49 or 52°C): did not block

EC50 (Chk1 [4]; U2OS, 25 μL media, 49°C (Fig 6C)): 1400 ± 300 nM
IC50 (Chk1 [5]): ~110 nM
EC50 (Chk1 [1]; [11]): 2000 ± 900 nM
EC50 (Chk1 [1]; HT29, 10 min, 49°C (Fig 6B), read-out: HCIF-CETSA EC50, mean of three independent experiments): 1700 ± 400 nM
EC50 (Chk1 [1]; HT29, 10 min, 49°C (Fig 6B), read-out: HCIF-CETSA EC50, single values of three independent experiments): 1900 nM and 1200 nM
EC50 (Chk1 [1]; HT29, 10 min pre-incubation, heated to 46°C (Fig 6A), read-out: EC50, reduction in Chk1 nuclear immunofluorescence): 1900 nM
EC50 (Chk1 [1]; HT29, 10 min pre-incubation, heated to 49°C (Fig 6A), read-out: EC50, reduction in Chk1 nuclear immunofluorescence): 1900 nM
EC50 (Chk1 [1]; HT29, 10 min pre-incubation, heated to 52°C (Fig 6A), read-out: EC50, reduction in Chk1 nuclear immunofluorescence): 2500 nM
Effect on Chk1 autophosphorylation (Chk1 [2]; HT29, 0–10 μM for 30 minutes, HU treated and untreated cells (Fig 4B)): inhibited Chk1 autophosphorylation
IC50 (Chk1 [2]; identical cellular conditions to HCIF-CETSA (Fig 6E), read-out: IC50, Chk1 autophosphorylation (pS296)): ~160 nM
Effect on thermostabilization of total Chk1 or phosphorylated Chk1 (Chk1 [8]): no effect
EC50 (Chk1 [9]): 1000 nM
SMILES: CN(C)CC(C)(C)COc1ccc2[nH]c(-c3cc(NC(=O)c4cnn(Cc5ccccc5)c4)c[nH]c3=O)cc2c1 [V158411]
Effect on mean nuclear Chk1 fluorescence in unheated cells (Chk1 [4]; unheated U2OS, 0–20 μM): increased the mean nuclear Chk1 fluorescence
EC50 (Chk1 [6]): 2300 ± 1200 nM
Effect on mean nuclear Chk1 intensity after PBS immersion heating (Chk1 [7]): did not alter the mean nuclear Chk1 intensity
EC50 (Chk1 [10]): 3300 ± 3400 nM
